EP4725957A1, “GROUP OF CYCLIC ALKALINE LIPOPEPTIDE COMPOUNDS, AND PREPARATION METHOD THEREFOR AND USE THEREOF” (Institute of Medicinal Biotechnology, Chinese Academy of …, priority 2023, dated 2024)
Values after ≈ are worked out from the molar mass of the structure shown. Read-outs that look alike come from different tables or passages of the source. Bridge positions count the residues as written; N and C are the ends. Square brackets hold non-standard residues; d marks the D form. Peptide text beside a SMILES is read from it. * marks the point of attachment. Heptanoyl(6-Me) = CC(C)CCCCC(=O)*; dOrn = NCCC[C@@H](N)C(=O)O; Nonanoyl = CCCCCCCCC(=O)*; X1 = CC[C@H](C)CCCCC(=O)*; Heptanoyl = CCCCCCC(=O)*; Octanoyl = CCCCCCCC(=O)*; Dab = NCC[C@H](N)C(=O)O; Dap = NC[C@H](N)C(=O)O

Experiments:
Type in all cases: cell-based
[1] = test system: Escherichia coli ATCC BAA-2523
Outline: (§1)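 Broth microdilution per CLSI in Mueller-Hinton broth. Compounds were tested at final concentrations of 64 to 0.03 mg/L (two-fold steps) against an inoculum of (2-4) × 10^5 CFU/mL, with incubation at 35-37°C for 16-20 h to give the MIC.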

[2] = test system: Pseudomonas aeruginosa ATCC 27853
Outline: as §1

[3] = test system: Pseudomonas aeruginosa PAE19-3
Outline: as §1

[4] = test system: Acinetobacter baumannii NCTC 13304 (OXA-27)
Outline: as §1

[5] = test system: Klebsiella pneumoniae KPN+19-15
Outline: as §1

[6] = test system: Escherichia coli ATCC BAA-2340 (KPC)
Outline: as §1

[7] = test system: Klebsiella pneumoniae ATCC BAA-1705 (KPC)
Outline: as §1

[8] = test system: Acinetobacter baumannii ABA19-1
Outline: as §1

[9] = Nephrotoxicity assay: in vitro cytotoxicity of HK-2 cells by CCK-8 assay; details: human, HK-2 cells (human renal), 72 h incubation with drug-containing medium
Outline: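 HK-2 human renal cells in RPMI-1640 with 10% FBS were exposed to compounds at final 12.5–500 µg/mL for 72 h, then CCK-8 for 3 h and OD450 read. Viability was normalised to drug-free wells; IC50 came from logarithmic regression over three repeats, with polymyxin B as positive drug.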

| Compound | MIC ([1]; Escherichia coli ATCC BAA-2523) | MIC ([2]; Pseudomonas aeruginosa ATCC27853) | MIC ([3]; Pseudomonas aeruginosa PAE19-3) | MIC ([4]; Acinetobacter baumannii NCTC 13304 (OXA-27)) | MIC ([5]; Klebsiella pneumoniae KPN 19-15) | MIC ([6]; Escherichia coli ATCC BAA-2340 (KPC)) | MIC ([7]; Klebsiella pneumoniae ATCC BAA-1705 (KPC)) | MIC ([8]; Acinetobacter baumannii ABA19-1) | IC50 at 72 h [9] | MIC ([1]; ATCC BAA-2523) | MIC ([2]; ATCC 27853) | MIC ([3]; PAE19-3) | MIC ([4]; NCTC 13304) | MIC ([5]; KPN+19-15) | MIC ([6]; ATCC BAA-2340) | MIC ([7]; ATCC BAA-1705) | MIC ([8]; ABA19-1) |
| --- | --- | --- | --- | --- | --- | --- | --- | --- | --- | --- | --- | --- | --- | --- | --- | --- | --- |
| CCCCCCCC(=O)N[C@@H](CCN)C(=O)N[C@H](C(=O)N[C@@H](CN)C(=O)N[C@H]1CCNC(=O)[C@H]([C@@H](C)O)NC(=O)[C@H](CCN)NC(=O)[C@H](CCN)NC(=O)[C@H](CC(C)C)NC(=O)[C@@H](Cc2ccccc2)NC(=O)[C@H](CCN)NC1=O)[C@@H](C)O [Compound 38, Octanoyl-Dab-Thr-Dap-ring(4-10)[Dab-Dab-D-Phe-Leu-Dab-Dab-Thr]] (Octanoyl-[Dab]T[Dap][Dab][Dab][dF]L[Dab][Dab]T; lactam 4-C) | 0.03 µg/mL (≈ 0.0255 µM) | 0.03 µg/mL (≈ 0.0255 µM) | 0.25 µg/mL (≈ 0.213 µM) | 0.03 µg/mL (≈ 0.0255 µM) | 0.03 µg/mL (≈ 0.0255 µM) | 0.03 µg/mL (≈ 0.0255 µM) | 0.03 µg/mL (≈ 0.0255 µM) | 0.03 µg/mL (≈ 0.0255 µM) | 219 ± 9.4 µg/mL (≈ 186 µM) |  |  |  |  |  |  |  |  |
| CCCCCCC(=O)N[C@@H](CCN)C(=O)N[C@H](C(=O)N[C@@H](CN)C(=O)N[C@H]1CCNC(=O)[C@H]([C@@H](C)O)NC(=O)[C@H](CCN)NC(=O)[C@H](CCN)NC(=O)[C@H](CC(C)C)NC(=O)[C@@H](Cc2ccccc2)NC(=O)[C@H](CCN)NC1=O)[C@@H](C)O [Compound 39, Heptanoyl-Dab-Thr-Dap-ring(4-10)[Dab-Dab-D-Phe-Leu-Dab-Dab-Thr]] (Heptanoyl-[Dab]T[Dap][Dab][Dab][dF]L[Dab][Dab]T; lactam 4-C) |  |  |  |  |  |  |  |  | 357 ± 8.1 µg/mL (≈ 307 µM) | 0.03 µg/mL (≈ 0.0258 µM) | 0.06 µg/mL (≈ 0.0517 µM) | 0.5 µg/mL (≈ 0.431 µM) | 0.03 µg/mL (≈ 0.0258 µM) | 0.03 µg/mL (≈ 0.0258 µM) | 0.03 µg/mL (≈ 0.0258 µM) | 0.03 µg/mL (≈ 0.0258 µM) | 0.03 µg/mL (≈ 0.0258 µM) |
| CCCCCCCCC(=O)N[C@@H](CCN)C(=O)N[C@H](C(=O)N[C@@H](CN)C(=O)N[C@H]1CCNC(=O)[C@H]([C@@H](C)O)NC(=O)[C@H](CCN)NC(=O)[C@H](CCN)NC(=O)[C@H](CC(C)C)NC(=O)[C@@H](Cc2ccccc2)NC(=O)[C@H](CCN)NC1=O)[C@@H](C)O [Compound 40, Nonanoyl-Dab-Thr-Dap-ring(4-10)[Dab-Dab-D-Phe-Leu-Dab-Dab-Thr]] (Nonanoyl-[Dab]T[Dap][Dab][Dab][dF]L[Dab][Dab]T; lactam 4-C) |  |  |  |  |  |  |  |  | 158 ± 6.4 µg/mL (≈ 133 µM) | 0.06 µg/mL (≈ 0.0504 µM) | 0.06 µg/mL (≈ 0.0504 µM) | 0.5 µg/mL (≈ 0.42 µM) | 0.06 µg/mL (≈ 0.0504 µM) | 0.06 µg/mL (≈ 0.0504 µM) | 0.06 µg/mL (≈ 0.0504 µM) | 0.06 µg/mL (≈ 0.0504 µM) | 0.06 µg/mL (≈ 0.0504 µM) |
| CC[C@H](C)CCCCC(=O)N[C@@H](CCN)C(=O)N[C@H](C(=O)N[C@H](CCCN)C(=O)N[C@H]1CCNC(=O)[C@H]([C@@H](C)O)NC(=O)[C@H](CCN)NC(=O)[C@H](CCN)NC(=O)[C@H](CC(C)C)NC(=O)[C@@H](Cc2ccccc2)NC(=O)[C@H](CCN)NC1=O)[C@@H](C)O [Compound 41, (S)-6-methyloctanoyl-Dab-Thr-D-Orn-ring(4-10)[Dab-Dab-D-Phe-Leu-Dab-Dab-Thr]] (X1-[Dab]T[dOrn][Dab][Dab][dF]L[Dab][Dab]T; lactam 4-C) |  |  |  |  |  |  |  |  | 259 ± 7.8 µg/mL (≈ 212 µM) | 0.03 µg/mL (≈ 0.0246 µM) | 0.25 µg/mL (≈ 0.205 µM) | 1 µg/mL (≈ 0.821 µM) | 0.06 µg/mL (≈ 0.0493 µM) | 0.125 µg/mL (≈ 0.103 µM) | 0.03 µg/mL (≈ 0.0246 µM) | 0.06 µg/mL (≈ 0.0493 µM) | 0.125 µg/mL (≈ 0.103 µM) |
| CC(C)CCCCC(=O)N[C@@H](CCN)C(=O)N[C@H](C(=O)N[C@H](CCCN)C(=O)N[C@H]1CCNC(=O)[C@H]([C@@H](C)O)NC(=O)[C@H](CCN)NC(=O)[C@H](CCN)NC(=O)[C@H](CC(C)C)NC(=O)[C@@H](Cc2ccccc2)NC(=O)[C@H](CCN)NC1=O)[C@@H](C)O [Compound 42, 6-methylheptanoyl-Dab-Thr-D-Orn-ring(4-10)[Dab-Dab-D-Phe-Leu-Dab-Dab-Thr]] ({Heptanoyl(6-Me)}-[Dab]T[dOrn][Dab][Dab][dF]L[Dab][Dab]T; lactam 4-C) |  |  |  |  |  |  |  |  | 316 ± 6.7 µg/mL (≈ 262 µM) | 0.03 µg/mL (≈ 0.0249 µM) | 0.25 µg/mL (≈ 0.208 µM) | 1 µg/mL (≈ 0.831 µM) | 0.06 µg/mL (≈ 0.0499 µM) | 0.125 µg/mL (≈ 0.104 µM) | 0.03 µg/mL (≈ 0.0249 µM) | 0.06 µg/mL (≈ 0.0499 µM) | 0.125 µg/mL (≈ 0.104 µM) |
| CCCCCCCC(=O)N[C@@H](CCN)C(=O)N[C@H](C(=O)N[C@H](CCCN)C(=O)N[C@H]1CCNC(=O)[C@H]([C@@H](C)O)NC(=O)[C@H](CCN)NC(=O)[C@H](CCN)NC(=O)[C@H](CC(C)C)NC(=O)[C@@H](Cc2ccccc2)NC(=O)[C@H](CCN)NC1=O)[C@@H](C)O [Compound 43, Octanoyl-Dab-Thr-D-Orn-ring(4-10)[Dab-Dab-D-Phe-Leu-Dab-Dab-Thr]] (Octanoyl-[Dab]T[dOrn][Dab][Dab][dF]L[Dab][Dab]T; lactam 4-C) |  |  |  |  |  |  |  |  | 328 ± 8.6 µg/mL (≈ 273 µM) | 0.03 µg/mL (≈ 0.0249 µM) | 0.25 µg/mL (≈ 0.208 µM) | 1 µg/mL (≈ 0.831 µM) | 0.06 µg/mL (≈ 0.0499 µM) | 0.125 µg/mL (≈ 0.104 µM) | 0.03 µg/mL (≈ 0.0249 µM) | 0.06 µg/mL (≈ 0.0499 µM) | 0.125 µg/mL (≈ 0.104 µM) |
